Source: article PMC7403827 (Clinical and Translational Medicine, 2020)

Experiment: Adverse events (CTCAE 4.0) under apatinib plus gefitinib
Assay type: in vivo, human
[1] = Apatinib 500 mg Cohort (n = 6), with gefitinib 250 mg, treatment‐related AE, patients (%)

N#CC1(c2ccc(NC(=O)c3cccnc3NCc3ccncc3)cc2)CCCC1 [Apatinib]
Abdominal distention, ALL [1]: 0
Abdominal distention, Grade 1–2 [1]: 0
Abdominal distention, Grade 3–4 [1]: 0
Blurred vision, ALL [1]: 1 (16.7%)
Blurred vision, Grade 1–2 [1]: 1 (16.7%)
Blurred vision, Grade 3–4 [1]: 0
Cough, ALL [1]: 1 (16.7%)
Cough, Grade 1–2 [1]: 1 (16.7%)
Cough, Grade 3–4 [1]: 0
Diarrhea, ALL [1]: 4 (66.7%)
Diarrhea, Grade 1–2 [1]: 3 (50.0%)
Diarrhea, Grade 3–4 [1]: 1 (16.7%)
Dizziness, ALL [1]: 1 (16.7%)
Dizziness, Grade 1–2 [1]: 1 (16.7%)
Dizziness, Grade 3–4 [1]: 0
Dry skin, ALL [1]: 1 (16.7%)
Dry skin, Grade 1–2 [1]: 1 (16.7%)
Dry skin, Grade 3–4 [1]: 0
Dysgeusia, ALL [1]: 0
Dysgeusia, Grade 1–2 [1]: 0
Dysgeusia, Grade 3–4 [1]: 0
Eczema, ALL [1]: 0
Eczema, Grade 1–2 [1]: 0
Eczema, Grade 3–4 [1]: 0
Elevated ALT, ALL [1]: 5 (83.3%)
Elevated ALT, Grade 1–2 [1]: 4 (66.7%)
Elevated ALT, Grade 3–4 [1]: 1 (16.7%)
Elevated AST, ALL [1]: 3 (50.0%)
Elevated AST, Grade 1–2 [1]: 3 (50%)
Elevated AST, Grade 3–4 [1]: 0
Epistaxis, ALL [1]: 1 (16.7%)
Epistaxis, Grade 1–2 [1]: 1 (16.7%)
Epistaxis, Grade 3–4 [1]: 0
Fatigue, ALL [1]: 1 (16.7%)
Fatigue, Grade 1–2 [1]: 1 (16.7%)
Fatigue, Grade 3–4 [1]: 0
Gastrointestinal bleeding, ALL [1]: 0
Gastrointestinal bleeding, Grade 1–2 [1]: 0
Gastrointestinal bleeding, Grade 3–4 [1]: 0
HFSR, ALL [1]: 2 (33.3%)
HFSR, Grade 1–2 [1]: 2 (33.3%)
HFSR, Grade 3–4 [1]: 0
Haematuria, ALL [1]: 0
Haematuria, Grade 1–2 [1]: 0
Haematuria, Grade 3–4 [1]: 0
Headache, ALL [1]: 0
Headache, Grade 1–2 [1]: 0
Headache, Grade 3–4 [1]: 0
Hematochezia, ALL [1]: 0
Hematochezia, Grade 1–2 [1]: 0
Hematochezia, Grade 3–4 [1]: 0
Hypertension, ALL [1]: 4 (66.7%)
Hypertension, Grade 1–2 [1]: 3 (50.0%)
Hypertension, Grade 3–4 [1]: 1 (16.7%)
Increased bilirubin, ALL [1]: 1 (16.7%)
Increased bilirubin, Grade 1–2 [1]: 1 (16.7%)
Increased bilirubin, Grade 3–4 [1]: 0
Increased creatinine, ALL [1]: 1 (16.7%)
Increased creatinine, Grade 1–2 [1]: 1 (16.7%)
Increased creatinine, Grade 3–4 [1]: 0
Leukopenia, ALL [1]: 1 (16.7%)
Leukopenia, Grade 1–2 [1]: 1 (16.7%)
Leukopenia, Grade 3–4 [1]: 0
Nausea, ALL [1]: 3 (50.0%)
Nausea, Grade 1–2 [1]: 3 (50.0%)
Nausea, Grade 3–4 [1]: 0
Neutropenia, ALL [1]: 1 (16.7%)
Neutropenia, Grade 1–2 [1]: 1 (16.7%)
Neutropenia, Grade 3–4 [1]: 0
Oulorrhagia, ALL [1]: 0
Oulorrhagia, Grade 1–2 [1]: 0
Oulorrhagia, Grade 3–4 [1]: 0
Paronychia, ALL [1]: 0
Paronychia, Grade 1–2 [1]: 0
Paronychia, Grade 3–4 [1]: 0
Periodontitis, ALL [1]: 0
Periodontitis, Grade 1–2 [1]: 0
Periodontitis, Grade 3–4 [1]: 0
Pharyngalgia, ALL [1]: 0
Pharyngalgia, Grade 1–2 [1]: 0
Pharyngalgia, Grade 3–4 [1]: 0
Pneumonia (non‐interstitial), ALL [1]: 0
Pneumonia (non‐interstitial), Grade 1–2 [1]: 0
Pneumonia (non‐interstitial), Grade 3–4 [1]: 0
Proteinuria, ALL [1]: 4 (66.7%)
Proteinuria, Grade 1–2 [1]: 2 (33.3%)
Proteinuria, Grade 3–4 [1]: 2 (33.3%)
Pruritus, ALL [1]: 1 (16.7%)
Pruritus, Grade 1–2 [1]: 1 (16.7%)
Pruritus, Grade 3–4 [1]: 0
Rash, ALL [1]: 6 (100%)
Rash, Grade 1–2 [1]: 6 (100%)
Rash, Grade 3–4 [1]: 0
Stomatitis, ALL [1]: 0
Stomatitis, Grade 1–2 [1]: 0
Stomatitis, Grade 3–4 [1]: 0
Thrombocytopenia, ALL [1]: 2 (33.3%)
Thrombocytopenia, Grade 1–2 [1]: 2 (33.3%)
Thrombocytopenia, Grade 3–4 [1]: 0
Trachyphonia, ALL [1]: 1 (16.7%)
Trachyphonia, Grade 1–2 [1]: 1 (16.7%)
Trachyphonia, Grade 3–4 [1]: 0
Vomiting, ALL [1]: 2 (33.3%)
Vomiting, Grade 1–2 [1]: 2 (33.3%)
Vomiting, Grade 3–4 [1]: 0
Serious Adverse Event (Patient 007, Apatinib Dose 500 mg, Discontinuation, Correlation with Apatinib Yes, Remission): Hypertension
